Data from patent US10780074B2, “Compounds and uses thereof” (Sunovion Pharmaceuticals Inc., priority 2017, dated 2020).
Where a name gives a salt, the structure may show the parent alone. Read-outs that look alike come from different tables or passages of the source.

Tested on: behaviors of compound-treated mice
Experiment: Neuropharmacological Assay (SmartCube)
Format: in vivo
Conditions: for minimal effective dose: Mus musculus, ip, 0.25 h, dose having 50% or more total activity in SmartCube, read-out: MED (minimal effective dose)
Outline: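 Behavioral signatures were captured automatically by video, and each drug class received a probability for the best of three i.p. doses given 15 min pre-test (vehicle: Pharmasolve/PEG/propylene glycol). Potency is given as MED, the lowest mpk dose (typically 0.3–30) reaching 50% or more total activity.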

[1] = i.p. 15 min before behavioral test, most efficacious dose(s) of 3 doses
[2] = SmartCube, i.p. 15 min before test, most efficacious dose(s)

SMILES | minimal effective dose (i.p.) [mg/kg] | AD: ADHD (probability that activity matches class) [1] | AG: analgesic (probability that activity matches class) [1] | AX: anxiolytic (probability that activity matches class) [1] | CE: cognitive enhancer (probability that activity matches class) [1] | DP: anti-depressant (probability that activity matches class) [1] | MS: mood stabilizer (probability that activity matches class) [1] | PS: anti-psychotic (probability that activity matches class) [1] | SD: sedative hypnotic (probability that activity matches class) [1] | UN: uncharacterized CNS activity (probability that activity matches class) [1] | minimal effective dose [mg/kg] | AD: ADHD (probability that activity matches class) [2] | AG: analgesic (probability that activity matches class) [2] | AX: anxiolytic (probability that activity matches class) [2] | CE: cognitive enhancer (probability that activity matches class) [2] | DP: anti-depressant (probability that activity matches class) [2] | MS: mood stabilizer (probability that activity matches class) [2] | PS: anti-psychotic (probability that activity matches class) [2] | SD: sedative hypnotic (probability that activity matches class) [2] | UN: uncharacterized CNS activity (probability that activity matches class) [2]
NC[C@@H]1OCCc2c(-c3cccnc3)cccc21 [Compound 15, (R)-(5-(Pyridin-3-yl)isochroman-1-yl)methanamine hydrochloride] | 10 to 30 | ++ (5% ≤ ++ <25%) | ++ (5% ≤ ++ <25%) | ++ (5% ≤ ++ <25%) | + (LOQ ≤ + <5%) | +++ (25% ≤ +++ <50%) | ++ (5% ≤ ++ <25%) | ++ (5% ≤ ++ <25%) | + (LOQ ≤ + <5%) | + (LOQ ≤ + <5%) |  |  |  |  |  |  |  |  |  | 
NC[C@@H]1OCCc2c1cccc2-n1ccnc1 [Compound 184, (R)-(5-(1H-Imidazol-1-yl)isochroman-1-yl)methanamine hydrochloride salt] |  |  |  |  |  |  |  |  |  |  | 10 to 30 | + (LOQ ≤ + <5%) | + (LOQ ≤ + <5%) | ++ (5% ≤ ++ <25%) | + (LOQ ≤ + <5%) | + (LOQ ≤ + <5%) | + (LOQ ≤ + <5%) | + (LOQ ≤ + <5%) | + (LOQ ≤ + <5%) | + (LOQ ≤ + <5%)
NCC1OCCc2ccc(-c3ccncn3)cc21 (centres unmarked) [Compound 57, 7-(Pyrimidin-4-yl)isochroman-1-yl)methanamine hydrochloride] | 10 to 30 | + (LOQ ≤ + <5%) | + (LOQ ≤ + <5%) | + (LOQ ≤ + <5%) | ++ (5% ≤ ++ <25%) | ++ (5% ≤ ++ <25%) | + (LOQ ≤ + <5%) | ++ (5% ≤ ++ <25%) | ++ (5% ≤ ++ <25%) | +++ (25% ≤ +++ <50%) |  |  |  |  |  |  |  |  |  | 
NC[C@H]1OCCc2c(-c3ccncn3)cccc21 (single isomer, unassigned) [Compound 75, hydrochloride salt] | 3 to 10 | + (LOQ ≤ + <5%) | + (LOQ ≤ + <5%) | ++ (5% ≤ ++ <25%) | + (LOQ ≤ + <5%) | ++++ (50% ≤ ++++) | + (LOQ ≤ + <5%) | + (LOQ ≤ + <5%) | + (LOQ ≤ + <5%) | ++ (5% ≤ ++ <25%) |  |  |  |  |  |  |  |  |  | 
CNC[C@@H]1OCCc2c(-c3ncccn3)cccc21 [Compound 24, (R)—N-Methyl-1-(5-(pyrimidin-2-yl)isochroman-1-yl)methanamine hydrochloride] | > 30 | + (LOQ ≤ + <5%) | + (LOQ ≤ + <5%) | ++ (5% ≤ ++ <25%) | + (LOQ ≤ + <5%) | + (LOQ ≤ + <5%) | + (LOQ ≤ + <5%) | + (LOQ ≤ + <5%) | + (LOQ ≤ + <5%) | ++ (5% ≤ ++ <25%) |  |  |  |  |  |  |  |  |  | 
